# In patent publication US11576901B2, “Methods for treating viral infection” (HOWARD UNIVERSITY, priority 2016, dated 2023):
# Tested on: HSV-1
# Test: Plaque forming assay, Hep-2 cell monolayers infected with HSV-1
# Assay type: cell-based
# Details: Hep-2 cells, 100 μM
# Description: The ability of a virus to infect cells can be assessed using a plaque assay. In a plaque assay, an infected cell culture is grown under a nutrient gel. During culturing, the virus being study infects cells and replicates. However, the spread of virus to other cells is limited by the overlaying nutrient gel. As such, replicated virus released from one infected cell can only infect neighboring cells. The spread of virus amongst neighboring cells creates a plaque that can be visualized by staining. By counting the visible plaques, the amount of plaque forming units (pfu) per mL can be determined. If cells treated with a compound display a reduced amount of pfu compared to cells not treated with the compound after being infected with same amount of viral particles, then the reduction in pfu would have to be result of the ability of the […] virus. Thus, the ability of a compound in accordance with General Formula 1, including derivatives in accordance with any of General Formulae 1-1 to 1-20, to inhibit the ability of HSV-1 to proliferate can be assessed with a plaque assay.
# Hep-2 cell monolayers were placed in well plates. The plated Hep-2 cells were treated with either DSMO as a control, 100 μM SD-29 or 100 μM SD29-12. A total of 6 well plates were prepared for each treatment condition. To each treated well plate an HSV-1 infecting solution comprising 1 mL of supernatants containing of the same amount of serially diluted HSV-1 particles were added. Accordingly, the treated well plates were infected with infection solutions containing the same amount of HSV-1 particles. After adsorption for 2 hours, the medium was removed and the treated cells were washed twice with serum-free DMEM and overlaid with phenol-free DMEM containing 5% FCS, 0.5% low-melting point agarose (GIBCO), and 1% penicillin-streptomycin. After either 0, 6, 12, 24 hours, the plaques present in each treated well plate were stained red and the number of plaques presented counted. Table 1 reports the mean plaque forming unit (pfu) determined for each treated well plate after averaging the number of pfu from the different plates receiving the same treatment.
structure (smiles),measurement,setting,value
Nn1c(S)nnc1-c1ccc(F)cc1 [SD-29],mean plaque forming unit (pfu),0 hpi,0 pfu
same,mean plaque forming unit (pfu),6 hpi,0 pfu
same,mean plaque forming unit (pfu),12 hpi,100 pfu
same,mean plaque forming unit (pfu),24 hpi,180000 pfu
same,number of pfu compared to DMSO control (in words),Table 1 and FIG. 7,reduced number of pfu compared to control
